In patent US20260337125A1, “RADIOLABELED TYROSINE DERIVATIVE AND APPLICATION THEREOF” (Osaka University, priority 2022, published 2026):

Legend:
[1] = Measurement of accumulated amounts of 211At-labeled compounds in PANC1 tumor-bearing mice; assay type: in vivo, human (PANC1) in Balb/c-nu/nu mice; details: tumor, iv, 0.1 MBq/animal, 0.1 MBq/0.2 mL per mouse, tail vein, read-out: tumor accumulation
Description: (§1) Radiation doses before and after the administration were measured, and a difference between them was defined as an injected dose (ID). Ten minutes and one hour after administration, the mice were anesthetized by isoflurane inhalation, the tumors were isolated by autopsy in chronological order, and their radiation doses and weights were measured using a gamma counter (2480 Wizard^2, PerkinElmer) and a semimicro scale (Shimadzu Corporation, readability 10 μg), respectively. For comparison between accumulated amounts, accumulated amounts per unit amount (% ID/g) were calculated.
(§2) In Table 1, the amounts of the ^211At-labeled compounds accumulated in tumors of the PANC1 tumor-bearing models (% ID/g) are shown. It should be noted that in Table 1, “OMe” is ^211At-AAMT-OMe, “OEt” is ^211At-AAMT-OEt, “OPr” is ^211At-AAMT-OPr, and “OH” is ^211At-AAMT.

PANC1 tumor = experiment: as above; assay type: in vivo, human (PANC1) in Balb/c-nu/nu mice
Description: as §1, §2

[2] = test system: Gem-resistant PANC1 (PANC1 Gem-r); details: in vivo
Description: (§3) Thirty days after administration, the mice were euthanized and tumor masses were isolated. After fat tissue and the like were trimmed off, the wet weights of the isolated tumor masses were measured to make a histogram.

[3] = test system: CDDP-resistant A549 (A549 CDDP-r); details: A549 CDDP-r tumor weight 30 days after administration, 0.5 MBq/0.2 mL per mouse, tail vein
Description: as §3

[4] = test system: human pancreatic cancer cell line (PANC1); assay type: in vivo, human (PANC1) in Balb/c-nu/nu mice; details: 1 MBq/0.2 mL per mouse, tail vein
Text: The experiment was terminated 21 days after administration.

[5] = test system: human pancreatic cancer cell line (PANC1); experiment: Imaging of mice subcutaneously transplanted with human pancreatic cancer cell line PANC1; assay type: in vivo, human (PANC1) in Balb/c-nu/nu mice; details: 2 hours after administration, 0.5 MBq/0.2 mL per mouse, tail vein
Description: Immunodeficient mice (Balb/c-nu/nu, 5-week-old, male) were habituated for 1 week and then subcutaneously transplanted with a human pancreatic cancer cell line (PANC1, 1×10^7 cells/mouse). After the transplantation, the mice were observed over time until tumor reached a size large enough for imaging (about 1000 mm^3). […] Two hours after administration, the mice were anesthetized by isoflurane inhalation, and planar images were taken using a γ camera (E-cam, Siemens).

A549 = experiment: Therapeutic test on mice subcutaneously transplanted with A549; assay type: in vivo, human (A549) in Balb/c-nu/nu mice; details: A549 tumor weight 30 days after administration, 0.5 MBq/0.2 mL per mouse, tail vein
Description: Immunodeficient mice (Balb/c-nu/nu, 5-week-old, male) were habituated for 1 week and then subcutaneously transplanted with A549 or CDDP-resistant A549 (A549 CDDP-r) (1×10^7 cells/mouse). The mice were observed over time until engraftment of tumors was confirmed (50 to 100 mm^3), and when the tumors reached a predetermined size, ^211At-AAMT-OMe or ^211At-AAMT diluted with water for injection to 0.5 MBq/0.2 mL per mouse was administered via tail vein. Thirty days after administration, the mice were euthanized and tumor masses were isolated. After fat tissue and the like were trimmed off, the wet weights of the isolated tumor masses were measured to make a histogram.

PANC1 = experiment: Cellular uptake test (Using PANC1); assay type: cell-based, human
Description: • Cells to be used: PANC1 • Culture medium to be used: D-MEM (containing 10% FBS, 1% P/S)
Two days before a test day, a cell suspension was prepared in such a manner that the concentration of predetermined cells was 1×10^5 cells/mL in the same manner as in Test Example 1. The cell suspension was seeded in a 24-well multiculture plate at a volume of 0.5 mL per well. On the day of the test, cultures were confirmed to be subconfluent (which refers to a state where 70-80% of the well is covered in density). The cells were washed twice with warmed PBS(-) Buffer (166-23555, FUJIFILM Wako Pure Chemical Corporation), the culture medium was replaced with HBSS(-) Buffer (085-09355, FUJIFILM Wako Pure Chemical Corporation), and the plate was left to stand in an incubator (MINIcell-35, WakenBtech Co., Ltd) until an RI addition test.
^211At-AAMT-OMe, ^211At-AAMT-OEt, ^211At-AAMT-OPr, or ^211At-AAMT was added to the prepared cells at 10 μL/well. BCH (LAT1 inhibitor, 20 mM) or unlabeled AMT (α-methyl tyrosine, 1 μg/mL) was previously (15 minutes before) added ([…]). The cells were cultured (CO2 5%, 37 °C), and after 30 minutes, the liquid was removed by suction using an aspirator. The cells were washed twice with PBS(-). The cells were lysed by adding 0.1N NaOH to obtain a lysate, and the radioactivity of the lysate was measured using a γ counter. After the radioactivity measurement, the lysate was loaded into a 96-well plate at a volume of 10 μL per well, the protein amount was measured by the BCA method, and the number of cells was corrected based on the protein amount. Absorbance was measured by MultiScanFC (Thermo Fisher). The uptake level of ^211At-AAMT-OMe, ^211At-AAMT-OEt, ^211-At-AAMT-OPr, or ^211At-AAMT into the cells (number of radioactivity counts/protein amount) was calculated.

[6] = test system: CDDP-resistant A549 (A549 CDDP-r); details: 48 hours, 37 °C, Cell counting kit-8
Description: Two days before experiment, A549 and CDDP-resistant A549 (A549 CDDP-r) were each seeded in a 96-well plate at a concentration of 1×10^5 cells/mL. ^211At-AAMT-OMe or ^211At-AAMT adjusted to a predetermined concentration was added to A549 cells and CDDP-resistant A549 cells, respectively, and the cells were cultured (CO2 5%, 37 °C). After the cultivation for 48 hours, Cell counting kit-8 (DOJINDO LABORATORIES) was added. After the addition, the cells were cultured at 37 °C for 1 hour, and cell viability was measured using absorbance at 450 nm as an indicator.

COc1ccc(C[C@](C)(N)C(=O)O)cc1[At] [^211At-AAMT-OMe, (S)-3-astato(^211At)-O-methyl-α-methyltyrosine]
tissue uptake at 10 min ([1]; 10 minutes after administration): 2.59 %ID/g
tissue uptake at 1 h ([1]; 1 hour after administration): 3.78 %ID/g
accumulation in the tumor sites compared to 211At-AAMT (PANC1 tumor; 10 minutes and 1 hour after administration, tail vein): more highly accumulated in the tumor sites than ^211At-AAMT
retention at tumor sites (PANC1 tumor; compared to 211At-AAMT): superior retention at tumor sites compared to ^211At-AAMT
anti-tumor effect [2]: higher on Gem-resistant PANC1 (PANC1 Gem-r) than on PANC1
tumor growth inhibiting effect [2]: higher tumor growth inhibiting effect on the gemcitabine-resistant PANC1 cells
anti-tumor effect [3]: higher than that of ^211At-AAMT on CDDP-resistant A549
apparent toxicity ([4]; 21 days): apparent toxicity induced by their administration was not observed
lesions other than tumor at autopsy ([4]; 21 days): lesions other than tumor were not observed
mouse body weight ([4]; up to 21 days after administration): gently increased
accumulation in tumor site (planar γ camera image) [5]: accumulated in the tumor sites, with a larger amount of ^211At-AAMT-OMe remaining in the tumor
anti-tumor effect (A549): comparable to that of ^211At-AAMT on A549
uptake level into cells (number of radioactivity counts/protein amount) (PANC1): much superior in uptake level to ^211At-AAMT
uptake speed (PANC1; PANC1 cells, uptake level immediately after addition): much superior also in uptake speed
cytotoxicity [6]: more remarkable cytotoxicity against A549 CDDP-r
